{
  "source": "paper PMC9060980",
  "about": "(Evidence-based Complementary and Alternative Medicine : eCAM, 2022)",
  "key": {"A549 tumor": {"test_system": "A549 tumor", "type": "in vivo, BALB/c mice", "set-up": "tumor weight: unit not given beside the values", "experimental": "(§1) Tumor-bearing mice were weighed using an electronic scale and tumor sizes were surveyed with vernier calipers, and these procedures were conducted twice a week. Tumor weight was calculated from the tumor sizes according to the reported formula [30]: tumor volume (mm^3) = (tumor length in mm) × (tumor width in mm)^2/2. One and a half hours after the last administration on Day 34, all mice were sacrificed after blood was collected from the orbital sockets using fine capillaries. […] The serum was separated and analyzed by method described previously."}, "[1]": {"assay": "Plasma concentration of paclitaxel in A549 xenograft mice", "type": "in vivo", "details": "BALB/c, mouse, intraperitoneal, 10 mg/kg, plasma concentration of paclitaxel […] after administration, PTX 10 mg/kg I.P., PTX + WAB 10 + 50 mg/kg I.G., Day 34, mean", "protocol": "Tumor-bearing mice were weighed using an electronic scale and tumor sizes were surveyed with vernier calipers, and these procedures were conducted twice a week. Tumor weight was calculated from the tumor sizes according to the reported formula [30]: tumor volume (mm^3) = (tumor length in mm) × (tumor width in mm)^2/2. One and a half hours after the last administration on Day 34, all mice were sacrificed after blood was collected from the orbital sockets using fine capillaries. […] The serum was separated and analyzed by method described previously [7]."}, "[2]": {"assay": "Mortality, survival, side effect and body weight of A549 xenograft-bearing mice", "experimental": "as §1"}, "P-gp": {"biological_target": "T1, P-gp (Homo sapiens, UniProt P08183)", "T1 construct": "expressed in transfected cells; host or cells: MDCK-MDR1 (Madin-Darby canine kidney cells transfected with human MDR1)", "T1 sequence (P08183 whole entry)": "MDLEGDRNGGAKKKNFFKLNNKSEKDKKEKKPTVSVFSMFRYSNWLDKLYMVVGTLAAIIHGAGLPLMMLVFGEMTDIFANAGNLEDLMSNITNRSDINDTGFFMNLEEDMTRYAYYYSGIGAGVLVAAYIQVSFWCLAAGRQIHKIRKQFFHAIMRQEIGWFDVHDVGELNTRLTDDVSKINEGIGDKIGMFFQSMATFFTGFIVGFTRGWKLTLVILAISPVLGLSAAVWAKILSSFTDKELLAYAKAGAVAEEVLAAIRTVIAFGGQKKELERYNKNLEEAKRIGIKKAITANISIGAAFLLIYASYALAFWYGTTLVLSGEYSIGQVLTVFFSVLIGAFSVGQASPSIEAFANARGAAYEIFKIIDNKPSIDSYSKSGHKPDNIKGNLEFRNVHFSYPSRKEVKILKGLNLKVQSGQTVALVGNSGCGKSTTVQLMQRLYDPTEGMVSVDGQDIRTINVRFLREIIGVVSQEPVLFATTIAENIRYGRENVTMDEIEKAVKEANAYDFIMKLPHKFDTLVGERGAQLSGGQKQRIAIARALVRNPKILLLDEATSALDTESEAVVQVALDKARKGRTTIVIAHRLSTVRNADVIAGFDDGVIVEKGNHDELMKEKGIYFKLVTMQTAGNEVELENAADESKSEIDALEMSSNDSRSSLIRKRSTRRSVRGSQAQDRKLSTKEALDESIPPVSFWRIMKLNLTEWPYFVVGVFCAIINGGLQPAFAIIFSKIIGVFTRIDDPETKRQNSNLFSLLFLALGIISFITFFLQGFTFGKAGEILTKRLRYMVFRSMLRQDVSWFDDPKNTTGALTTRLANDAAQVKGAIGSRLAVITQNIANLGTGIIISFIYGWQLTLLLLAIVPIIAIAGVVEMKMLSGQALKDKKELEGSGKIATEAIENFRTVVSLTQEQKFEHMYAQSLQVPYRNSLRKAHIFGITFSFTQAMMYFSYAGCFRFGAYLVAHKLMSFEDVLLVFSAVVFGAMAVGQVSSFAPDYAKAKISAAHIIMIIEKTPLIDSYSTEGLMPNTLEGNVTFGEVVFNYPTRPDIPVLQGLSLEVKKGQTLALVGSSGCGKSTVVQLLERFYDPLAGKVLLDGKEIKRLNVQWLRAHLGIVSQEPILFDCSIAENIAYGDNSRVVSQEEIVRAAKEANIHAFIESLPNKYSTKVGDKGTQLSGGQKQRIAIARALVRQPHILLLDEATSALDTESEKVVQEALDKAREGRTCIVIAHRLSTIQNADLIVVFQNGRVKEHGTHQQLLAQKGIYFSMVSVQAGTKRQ", "assay": "Permeation of PTX through MDCK–MDR1 cell monolayers", "type": "in vitro ADME", "details": "dog, PTX alone or with VRP 100 μM", "experimental": "To evaluate the inhibitory effect of flavonoids or lignoids on P-gp-induced reflux of PTX across the cultured cell monolayer, MDCK–MDR1cells were seeded on to Falcon 24-multiwell insert system at a density of 6 × 10^5 cells/mL. The detailed method is applied as previous research with some modification (such as time points of sampling including 0, 30, 60, 90, 120 min are selected, and C0 of PTX in the apical compartment is 1 μg/mL).\nThe apical (AP) media volume was 500 μL and the basolateral (BL) volume was 1500 μL."}, "A549 cells [3]": {"test_system": "A549 cells", "assay": "MTT assay in A549", "type": "cell-based", "details": "Homo sapiens, 50 nM, 24 h, read-out: inhibition of the proliferation of A549 cells", "experimental": "100 μL A549 cells (2 × 10^5 cells/mL) were seeded onto a 96-well plate. […] The same volume of complete culture medium served as the negative control. Then, 20 μl MTT solution (5 mg/mL) was added to each well, and the plates were incubated for 4 h. The medium was replaced by 150 μl DMSO, which solubilized the MTT formazan salt. The absorbance of the solution was measured on a microplate reader (Vrioskan Flash, Thermo Scientific, USA) at 490 nm and the results were expressed as a percentage of the control cells."}, "[4]": {"test_system": "BCL-2 family proteins' expressions in A549", "assay": "Western blotting of BCL-2 family proteins", "type": "cell-based, human", "details": "PTX 50 nM, 24 h", "experimental": "Total cell extracts were lysed in lysis buffer (Ripa, Solarbio, China), and protein extract (60 μg) was added into each well of 10% gel and separated through gel electrophoresis. Gels were soaked in transfer buffer (30 mM glycine, 16 mM Tris-HCl, and 20% methanol) and proteins in the gels were then blotted to polyvinylidene difluoride (PVDF) membranes. Nonfat dry milk in PBST (137 mM NaCl, […], 100 mM Na2HPO4, 20 mM KH2PO4 0.05% tween 20, pH 7.4) was used for blocking nonspecific binding sites. The polyvinylidene difluoride membranes were then incubated with primary antibodies: anti-BCL-2 mAb (1 : 1000), anti-BAK mAB (1 : 2000), anti-MCL-1 pAb (1 : 3000), anti-pMCL-1 mAb (1 : 2000), anti-cyclinB1 mAb (1 : 1000), or anti-b-actin mAb (1 : 5000). Then, secondary antibodies (anti-mouse 1 : 5000, anti-rabbit–1:5000) were applied to the membranes. The ECL western blotting detection kit was used for detecting protein bands in the membranes. Protein bands were detected using the ECL Plus Kit (Huaan biotech, Hangzhou, China), imaged on Tanon 2000. Densitometry analysis was performed using ImageJ software to calculate the relative expression change after normalizing with β-actin."}, "A549 cells [5]": {"test_system": "A549 cells", "assay": "Flow cytometry with Annexin V/PI staining", "type": "cell-based, human", "details": "PTX 50 nM, 24 h", "experimental": "Afterward, they were washed with PBS, counted, and adjusted to 1 × 10^6 cells/ml. Apoptosis of A549 cells was determined by flow cytometry (FC500; Beckman Coulter, Brea, CA, USA) using the Annexin V-fluorescein isothiocyanate (FITC)/propidium iodide (PI) kit (MULTISCIENCES (LIANKE) BIOTECH, CO., LTD, Hangzhou, China). Staining was performed in accordance with the method described in the manufacturer's instructions. The rate of apoptosis was analyzed using MCF software (Beckman Coulter, Brea, CA, USA)."}, "in vitro": {"assay": "in vitro", "details": "human, Caco-2", "protocol": "(§2) The apical (AP) media volume was 500 μL and the basolateral (BL) volume was 1500 μL. […] Verapamil serves as a positive control for this experiment and was added to both compartments prior to initiation. At 30, 60, 90, and 120 min, 100 μL of media was removed from the receiver compartment followed by the addition of 100 μL of preheated buffer as replenishment."}, "Caco-2 cells": {"test_system": "Caco-2 cells", "assay": "Caco-2 bidirectional transport of paclitaxel", "details": "paclitaxel 1 μg/mL alone or with verapamil 100 μM", "protocol": "as §2"}, "[6]": {"details": "PTX 10 mg/kg I.P., PTX + WAB 10 + 50 mg/kg I.G."}, "[7]": {"details": "PTX 10 mg/kg I.P., PTX + WAB 10 + 50 mg/kg I.G., Day 34"}},
  "note": "“And” between values parts separate entries of the source, which are not always exact repeats. Equal values may be shown once. Read-outs that look alike come from different tables or passages of the source.",
  "data": [
    {"smiles": "CC(=O)O[C@H]1C(=O)[C@@]2(C)[C@H]([C@H](OC(=O)c3ccccc3)[C@]3(O)C[C@H](OC(=O)[C@H](O)[C@@H](NC(=O)c4ccccc4)c4ccccc4)C(C)=C1C3(C)C)[C@]1(OC(C)=O)CO[C@@H]1C[C@@H]2O", "note": "[Paclitaxel]", "values": [
      {"measurement": "tumor volume, group mean", "setting": "A549 tumor; Day 1, PTX 10 mg/kg I.P., PTX+WAB 10+50 mg/kg I.G.", "result": 80.63, "unit": "mm^3"},
      {"measurement": "tumor volume, group mean", "setting": "A549 tumor; Day 4, PTX 10 mg/kg I.P., PTX+WAB 10+50 mg/kg I.G.", "result": 88.36, "unit": "mm^3"},
      {"measurement": "tumor volume, group mean", "setting": "A549 tumor; Day 7, PTX 10 mg/kg I.P., PTX+WAB 10+50 mg/kg I.G.", "result": 123.87, "unit": "mm^3"},
      {"measurement": "tumor volume, group mean", "setting": "A549 tumor; Day 10, PTX 10 mg/kg I.P., PTX+WAB 10+50 mg/kg I.G.", "result": 140.25, "unit": "mm^3"},
      {"measurement": "tumor volume, group mean", "setting": "A549 tumor; Day 13, PTX 10 mg/kg I.P., PTX+WAB 10+50 mg/kg I.G.", "result": 170.16, "unit": "mm^3"},
      {"measurement": "tumor volume, group mean", "setting": "A549 tumor; Day 16, PTX 10 mg/kg I.P., PTX+WAB 10+50 mg/kg I.G.", "result": 131.58, "unit": "mm^3"},
      {"measurement": "tumor volume, group mean", "setting": "A549 tumor; Day 19, PTX 10 mg/kg I.P., PTX+WAB 10+50 mg/kg I.G.", "result": 181.34, "unit": "mm^3"},
      {"measurement": "tumor volume, group mean", "setting": "A549 tumor; Day 22, PTX 10 mg/kg I.P., PTX+WAB 10+50 mg/kg I.G.", "result": 174.31, "unit": "mm^3"},
      {"measurement": "tumor volume, group mean", "setting": "A549 tumor; Day 25, PTX 10 mg/kg I.P., PTX+WAB 10+50 mg/kg I.G.", "result": 203.28, "unit": "mm^3"},
      {"measurement": "tumor volume, group mean", "setting": "A549 tumor; Day 28, PTX 10 mg/kg I.P., PTX+WAB 10+50 mg/kg I.G.", "result": 256.78, "unit": "mm^3"},
      {"measurement": "tumor volume, group mean", "setting": "A549 tumor; Day 31, PTX 10 mg/kg I.P., PTX+WAB 10+50 mg/kg I.G.", "result": 273.56, "unit": "mm^3"},
      {"measurement": "tumor volume, group mean", "setting": "A549 tumor; Day 34, PTX 10 mg/kg I.P., PTX+WAB 10+50 mg/kg I.G.", "result": 263.74, "unit": "mm^3"},
      {"measurement": "activity against A549 tumor growth", "setting": "A549 tumor; [6]", "result": "weak inhibitory activity against A549"},
      {"measurement": "Inhibition rate", "setting": "A549 tumor; [7]", "result": "38.60 ± 64.87", "unit": "%"},
      {"measurement": "tumor weight", "setting": "A549 tumor; PTX 10 mg/kg I.P., PTX+WAB 10+50 mg/kg I.G., Day 34, individual animals, listed as PTX", "result": "0.2469 and 0.1592 and 0.156 and 0.1923 and 0.1802 and 0.1183 and 0.1699"},
      {"measurement": "Mean (growth factor)", "setting": "A549 tumor; PTX 10 mg/kg, PTX+WAB 10+50 mg/kg, from tumor size Day 34/Day 1", "result": 13.43},
      {"measurement": "concentration at […]", "setting": "[1]", "result": 201, "unit": "ng/mL"},
      {"measurement": "Survival rate", "setting": "[2]; [6]", "result": 66.7, "unit": "%"},
      {"measurement": "Mortality (dead mice)", "setting": "[2]; [7]", "result": 4},
      {"measurement": "mortality %", "setting": "[2]; PTX group, PTX+WAB 10+50 mg/kg, Day 34", "result": 33.33, "unit": "%"},
      {"measurement": "Papp B→A at 120 min, 1 μg/mL", "setting": "P-gp", "result": "86.4 ± 14.1", "unit": "×10⁻⁶ cm/s"},
      {"measurement": "inhibition at 0.05 µM", "setting": "A549 cells [3]", "result": "~28", "unit": "%"},
      {"measurement": "expressions of cyclinB1, BAK, BCL-2, MCL-1, and pMCL-1", "setting": "[4]", "result": "significantly upregulated"},
      {"measurement": "percentage of cells Annexin V positive", "setting": "A549 cells [5]", "result": "approx. 16.3%"},
      {"measurement": "apoptosis", "setting": "A549 cells [5]; with or without HDS-2 80 μg/mL", "result": 17.5, "unit": "%"},
      {"measurement": "percentage of cells PI positive (necrosis)", "setting": "A549 cells [5]; with or without HDS-2 80 μg/mL", "result": "approx. 22.8%"},
      {"measurement": "Papp A→B at 120 min, 1 μg/mL", "setting": "in vitro", "result": 0.252, "unit": "×10⁻⁶ cm/s"},
      {"measurement": "Papp B→A at 120 min, 1 μg/mL", "setting": "in vitro", "result": 75.3, "unit": "×10⁻⁶ cm/s"},
      {"measurement": "Papp AP–BL of paclitaxel", "setting": "Caco-2 cells", "result": "0.25 ± 0.43 ×10^−6 cm/s"},
      {"measurement": "Papp BL–AP of paclitaxel", "setting": "Caco-2 cells", "result": "75.26 ± 7.43 ×10^−6 cm/s"}
    ]}
  ]
}
